Data as given in PubChem BioAssay AID1963862 (Molecular Pharmacology Branch, DTP, NCI, 2024).

Test system: KRAS patient-derived spheroids with HUVEC/MSC, viability
Assay: Anticancer human tumor 941728-121-R-J1-PDC patient-derived lung adenocarcinoma cell line growth inhibition [KRAS2]
Settings: for IC50: curve of first compound; for viability, T/C: stronger effect = lower value
Source text: Multicellular complex tumor spheroid response to RAS pathway inhibitors in combination with a targeted agents in patient-derived cell lines with oncogenic KRAS variants from multiple cancer types
A high-throughput screen of multi-cell type tumor spheroids was designed to identify active combinations of targeted small molecules and KRAS pathway inhibitors. Complex spheroids include a stromal component modeled by human endothelial cells (HUVEC) and fibroblasts modeled by human mesenchymal stem cells (MSCs). The concentration ranges selected for each drug and investigational agent were based upon clinically achievable concentrations if the clinical Cmax of the agent was known.
Compounds. The drugs and investigational agents: BI-3406 (NSC825286), BAY-293 (NSC824723), batoprotafib (TNO155; NSC825523), sotorasib (AMG 510; NSC818433), MRTX1257 (NSC819558), elimusertib (BAY 1895344; NSC800525), molibresib (GSK525762; NSC774829), temuterkib (LY3214996; NSC803410), venetoclax (NSC766270), alisertib (NSC759677), olaparib (NSC753686), talazoparib (NSC767125), erdafitinib (NSC781556), ipatasertib (NSC767898), cabozantinib (NSC761068), nintedanib (NSC756659), abemaciclib (NSC768073), docetaxel (NSC628503), trametinib (NSC758246), and sapanisertib (NSC764658) were obtained from the National Cancer Institute (NCI) Developmental Therapeutics Program Chemical Repository. The FDA-approved anticancer drug set is available from the Developmental Therapeutics Program. […] The stock solutions were prepared in dimethyl sulfoxide (DMSO, Sigma-Aldrich, St. Louis, MO, cat. D2650) at 800-fold the tested concentration and stored at -70 degrees C prior to their use. All drugs and investigational agents were tested over a range starting from a high concentration at or near the clinical Cmax and decreasing in half-log increments. If the clinical Cmax for an agent had not been determined, the highest concentration tested was 10 microM.
Cell Culture. All cells were maintained in an incubator at 37 degrees C and 5% CO2 with 95% humidity. The PDC lines were cultured according to standard operating procedures established by the NCI PDMR (https://pdmr.cancer.gov/sops/default.htm). Briefly, all PDCs were thawed and cultured in Matrigel-coated flasks prepared with a working solution of 1X Ham's F-12 nutrient mix, without supplementation (Invitrogen, Waltham, MA, cat. 11765054), 100 U/mL penicillin-streptomycin (Invitrogen, cat. 15140122), and 2.5% Matrigel (Corning Inc., Corning, NY, cat. 354248) for the first three passages. All PDCs were cultured in complete DMEM/F-12 media containing advanced DMEM/F-12 (Invitrogen, cat. 12634028), 4.9% defined fetal bovine serum, heat inactivated (HyClone Laboratories Inc., Logan, UT, cat. SH30070.03HI), 389 ng/mL hydrocortisone (Sigma-Aldrich, cat. H4001), 9.7 ng/mL human EGF recombinant protein (Invitrogen, cat. PHG0313), 23.4 microg/mL adenine (Sigma-Aldrich, cat. A2786), 97.3 U/mL penicillin-streptomycin (Invitrogen, cat. 15140122), 1.9 mM L-glutamine (Invitrogen, cat. 25030081), and 9.7 microM Y-27632 dihydrochloride (Tocris Bioscience, Bristol, United Kingdom, cat. 1254). The PDCs were cultured in complete DMEM/F12 media without 9.7 microM Y-27632 dihydrochloride for at least two passages prior to the screen. The established cell line HOP-62 was cultured in RPMI 1640 medium, HEPES (Invitrogen, cat. 22400105) with 10% defined fetal bovine serum (HyClone Laboratories Inc., cat. SH30070.03) and 2 mM L-glutamine (Invitrogen, cat. 25030081). The pooled donor HUVEC were cultured in endothelial cell growth medium 2 (PromoCell, Heidelberg, Germany, cat. C-22011) and the hMSC were cultured in mesenchymal stem cell growth medium 2 (PromoCell, cat. C-28009). For all experiments, HUVEC and hMSC were used at passages </=5, while the malignant cell lines were used at passages </=15. […]

[1] = second compound 0.1 µM, first compound 0.000316 µM
[2] = second compound 0.1 µM, first compound 0.001 µM
[3] = second compound 0.1 µM, first compound 0.00316 µM
[4] = second compound 0.1 µM, first compound 0.01 µM
[5] = second compound 0.1 µM, first compound 0.0316 µM
[6] = second compound 0.316 µM, first compound 0.000316 µM
[7] = second compound 0.316 µM, first compound 0.001 µM
[8] = second compound 0.316 µM, first compound 0.00316 µM
[9] = second compound 0.316 µM, first compound 0.01 µM
[10] = second compound 0.316 µM, first compound 0.0316 µM
[11] = second compound 1 µM, first compound 0.000316 µM
[12] = second compound 1 µM, first compound 0.001 µM
[13] = second compound 1 µM, first compound 0.00316 µM
[14] = second compound 1 µM, first compound 0.01 µM
[15] = second compound 1 µM, first compound 0.0316 µM
[16] = second compound 3.16 µM, first compound 0.000316 µM
[17] = second compound 3.16 µM, first compound 0.001 µM
[18] = second compound 3.16 µM, first compound 0.00316 µM
[19] = second compound 3.16 µM, first compound 0.01 µM
[20] = second compound 3.16 µM, first compound 0.0316 µM
[21] = second compound 10 µM, first compound 0.000316 µM
[22] = second compound 10 µM, first compound 0.001 µM
[23] = second compound 10 µM, first compound 0.00316 µM
[24] = second compound 10 µM, first compound 0.01 µM
[25] = second compound 10 µM, first compound 0.0316 µM
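Further: spheroids exposed to agents for seven days before readout.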

Row | Structure (SMILES) | IC50 (second compound 0.1 µM) [pM] | IC50 (second compound 0.316 µM) [pM] | IC50 (second compound 1 µM) [pM] | IC50 (second compound 3.16 µM) [pM] | IC50 (second compound 10 µM) [pM] | viability, T/C [1] [%] | viability, T/C [2] [%] | viability, T/C [3] [%] | viability, T/C [4] [%] | viability, T/C [5] [%] | viability, T/C [6] [%] | viability, T/C [7] [%] | viability, T/C [8] [%] | viability, T/C [9] [%] | viability, T/C [10] [%] | viability, T/C [11] [%] | viability, T/C [12] [%] | viability, T/C [13] [%] | viability, T/C [14] [%] | viability, T/C [15] [%] | further results
1 | CC(=O)Nc1cccc(-n2c(=O)n(C3CC3)c(=O)c3c(Nc4ccc(I)cc4F)n(C)c(=O)c(C)c32)c1 + C=CC(=O)N1CCN(c2nc(=O)n(-c3c(C)ccnc3C(C)C)c3nc(-c4c(O)cccc4F)c(F)cc23)C(C)C1 | < 100 | < 100 | < 100 | < 100 | < 100 | 26.2 | 20.3 | 21.6 | 19.6 | 19.3 | 25.4 | 24.1 | 22.9 | 20.2 | 19.3 | 28.3 | 24.2 | 23.6 | 22.3 | 20.4 | viability, T/C (second compound 0.1 µM, first compound 0.0001 µM): 27.9%; viability, T/C (second compound 0.316 µM, first compound 0.0001 µM): 26%; viability, T/C (second compound 1 µM, first compound 0.0001 µM): 27.5%; viability, T/C (second compound 3.16 µM, first compound 0.0001 µM): 27.3%; viability, T/C [16]: 30.1%; viability, T/C [17]: 26.9%; viability, T/C [18]: 25.9%; viability, T/C [19]: 28.6%; viability, T/C [20]: 23.4%; viability, T/C (second compound 10 µM, first compound 0.0001 µM): 35.8%; viability, T/C [21]: 31.4%; viability, T/C [22]: 36.3%; viability, T/C [23]: 36.2%; viability, T/C [24]: 29.6%; viability, T/C [25]: 29%
2 | CC(C)n1nc(-c2ccc3oc(N)nc3c2)c2c(N)ncnc21 + C=CC(=O)N1CCN(c2nc(=O)n(-c3c(C)ccnc3C(C)C)c3nc(-c4c(O)cccc4F)c(F)cc23)C(C)C1 | < 316 | < 316 | < 316 | < 316 | < 316 | 13.2 | 17 | 8.16 | 5.92 | 4.43 | 13.8 | 11.7 | 10.2 | 6.98 | 4.02 | 15 | 11 | 9.95 | 7.7 | 4.43 | viability, T/C (second compound 0.1 µM, first compound 0.1 µM): 3.9%; viability, T/C (second compound 0.316 µM, first compound 0.1 µM): 3.22%; viability, T/C (second compound 1 µM, first compound 0.1 µM): 5.61%; viability, T/C [16]: 14.2%; viability, T/C [17]: 16.4%; viability, T/C [18]: 13.3%; viability, T/C [19]: 9.65%; viability, T/C [20]: 6%; viability, T/C (second compound 3.16 µM, first compound 0.1 µM): 6.12%; viability, T/C [21]: 17.3%; viability, T/C [22]: 16.8%; viability, T/C [23]: 16.5%; viability, T/C [24]: 15.2%; viability, T/C [25]: 11.3%; viability, T/C (second compound 10 µM, first compound 0.1 µM): 11.2%
